# From ChEMBL document CHEMBL4428099, “Identification of indole scaffold-based dual inhibitors of NOD1 and NOD2” (Bioorg Med Chem, 2016)
# Activity calls are given as the source filed them. No cut-off for these calls is given here.
# Tests used:
# Format in all cases: cell-based
# [1] = target: T1, Nucleotide-binding oligomerization domain-containing protein 1 (Homo sapiens) (UniProt Q9Y239); assay: Inhibition of human NOD1 over-expressed in HEK-Blue cells assessed as inhibition of […] NF-kappaB transcriptional activity measured as residual activity at 25 uM preincubated for 1 hr followed by addition of C12-iE-DAP measured after 18 hrs by SEAP reporter gene assay relative to control
# T1 sequence (whole entry): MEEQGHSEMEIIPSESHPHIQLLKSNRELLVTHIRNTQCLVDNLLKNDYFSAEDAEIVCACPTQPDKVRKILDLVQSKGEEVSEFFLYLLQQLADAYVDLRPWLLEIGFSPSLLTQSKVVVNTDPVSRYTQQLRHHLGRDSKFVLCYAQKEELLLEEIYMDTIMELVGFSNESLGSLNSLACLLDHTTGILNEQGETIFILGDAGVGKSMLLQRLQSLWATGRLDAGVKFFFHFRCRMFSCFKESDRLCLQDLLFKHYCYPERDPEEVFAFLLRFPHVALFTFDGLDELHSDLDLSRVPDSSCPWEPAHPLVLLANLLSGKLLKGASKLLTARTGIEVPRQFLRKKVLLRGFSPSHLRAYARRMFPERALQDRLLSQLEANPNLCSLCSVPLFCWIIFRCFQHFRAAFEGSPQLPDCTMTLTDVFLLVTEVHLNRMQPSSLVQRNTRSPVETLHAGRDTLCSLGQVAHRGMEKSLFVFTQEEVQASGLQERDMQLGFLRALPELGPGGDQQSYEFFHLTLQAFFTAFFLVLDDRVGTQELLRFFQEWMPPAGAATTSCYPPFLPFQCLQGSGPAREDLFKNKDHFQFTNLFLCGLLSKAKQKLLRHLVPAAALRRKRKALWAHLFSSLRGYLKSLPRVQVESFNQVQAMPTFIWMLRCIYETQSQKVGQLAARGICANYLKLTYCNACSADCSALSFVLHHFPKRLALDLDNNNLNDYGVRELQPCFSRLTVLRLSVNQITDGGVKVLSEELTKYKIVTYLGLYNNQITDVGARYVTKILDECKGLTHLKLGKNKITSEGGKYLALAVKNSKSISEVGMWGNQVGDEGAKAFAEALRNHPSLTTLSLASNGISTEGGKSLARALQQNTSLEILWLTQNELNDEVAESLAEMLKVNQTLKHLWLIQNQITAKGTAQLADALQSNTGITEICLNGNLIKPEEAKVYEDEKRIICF
# [2] = Cytotoxicity against HEK-Blue cells assessed as residual metabolic activity up to 25 uM measured after 24 hrs by MTS assay relative to untreated control; conditions: human, read-out: Activity
# [3] = target: Nucleotide-binding oligomerization domain-containing protein 2 (Homo sapiens, UniProt Q9HC29); assay: Inhibition of human NOD2 over-expressed in HEK-Blue cells assessed as inhibition of […] NF-kappaB transcriptional activity preincubated for 1 hr followed by addition of C12-iE-DAP measured after 18 hrs by SEAP reporter gene assay
# [4] = target: T2, Nucleotide-binding oligomerization domain-containing protein 1 (Homo sapiens, UniProt Q9Y239); assay: Inhibition of human NOD1 over-expressed in HEK-Blue cells assessed as inhibition of […] NF-kappaB transcriptional activity preincubated for 1 hr followed by addition of C12-iE-DAP measured after 18 hrs by SEAP reporter gene assay
# T2 sequence (Q9Y239 whole entry): T1 sequence (whole entry)
# Sequence of Nucleotide-binding oligomerization domain-containing protein 2 (Q9HC29 whole entry, the tested form may be a part): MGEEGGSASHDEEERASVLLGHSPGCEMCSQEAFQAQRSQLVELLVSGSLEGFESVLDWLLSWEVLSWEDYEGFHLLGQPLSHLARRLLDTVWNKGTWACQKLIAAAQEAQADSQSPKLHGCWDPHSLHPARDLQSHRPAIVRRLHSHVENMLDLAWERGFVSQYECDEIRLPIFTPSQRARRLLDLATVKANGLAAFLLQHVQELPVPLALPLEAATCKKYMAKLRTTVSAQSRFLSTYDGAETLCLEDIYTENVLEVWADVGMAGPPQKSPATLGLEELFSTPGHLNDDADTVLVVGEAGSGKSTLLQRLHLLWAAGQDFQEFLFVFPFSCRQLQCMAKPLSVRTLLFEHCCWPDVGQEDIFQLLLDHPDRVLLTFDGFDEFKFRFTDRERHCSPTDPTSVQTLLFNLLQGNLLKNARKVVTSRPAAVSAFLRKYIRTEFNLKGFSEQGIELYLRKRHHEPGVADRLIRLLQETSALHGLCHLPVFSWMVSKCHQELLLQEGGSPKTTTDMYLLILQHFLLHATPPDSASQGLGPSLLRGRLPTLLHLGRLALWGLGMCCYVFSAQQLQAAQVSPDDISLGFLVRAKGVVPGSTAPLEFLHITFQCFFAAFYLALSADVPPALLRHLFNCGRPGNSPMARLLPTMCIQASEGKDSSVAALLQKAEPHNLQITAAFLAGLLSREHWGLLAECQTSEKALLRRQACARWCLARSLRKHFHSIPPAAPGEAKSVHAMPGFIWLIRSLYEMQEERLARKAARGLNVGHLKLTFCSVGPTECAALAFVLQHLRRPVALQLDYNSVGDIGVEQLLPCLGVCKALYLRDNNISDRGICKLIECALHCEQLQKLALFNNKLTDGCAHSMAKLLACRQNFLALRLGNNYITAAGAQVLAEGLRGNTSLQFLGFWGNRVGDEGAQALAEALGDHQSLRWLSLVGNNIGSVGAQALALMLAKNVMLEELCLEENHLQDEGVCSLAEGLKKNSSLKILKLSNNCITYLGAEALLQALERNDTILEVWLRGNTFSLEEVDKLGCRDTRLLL
Activity [1],Structure (SMILES),viability at 24 h [2],IC50 [3],IC50 [4]
inactive,N=C1Cc2ccccc2N1Cc1ccc(C(F)(F)F)cc1,≥ 80%,–,–
29%,CCOC(=O)c1cc2ccccc2n1Cc1ccc(Cl)cc1,≥ 80%,–,–
45%,CCOC(=O)c1cc2ccccc2n1Cc1ccc(Br)cc1,≥ 80%,–,–
37%,CCOC(=O)c1cc2ccccc2n1S(=O)(=O)c1ccc(C(F)(F)F)cc1,≥ 80%,–,–
68%,Cc1ccc(S(=O)(=O)n2c(C(=O)NN)cc3ccccc32)cc1,≥ 80%,–,–
76%,Cc1ccc(S(=O)(=O)n2c(C(N)=O)cc3ccccc32)cc1,≥ 80%,–,–
58%,CCOC(=O)c1cc2ccccc2n1Cc1ccccc1,≥ 80%,–,–
–,Cc1ccc(S(=O)(=O)n2c(NC(=O)OC(C)(C)C)cc3ccccc32)cc1,≥ 80%,–,–
–,Cc1ccc(S(=O)(=O)N2C(=N)Cc3ccccc32)cc1,≥ 80%,–,–
46%,CCOC(=O)c1cc2ccccc2n1Cc1ccc(C(F)(F)F)cc1,≥ 80%,–,–
36%,CCOC(=O)c1cc2ccccc2n1S(=O)(=O)c1ccc(OC)cc1,≥ 80%,–,–
53%,CCOC(=O)c1cc2ccccc2n1Cc1ccc(F)cc1,≥ 80%,–,–
42%,CCOC(=O)c1cc2ccccc2n1Cc1ccc(C(C)C)cc1,≥ 80%,–,–
9%,Cc1ccc(S(=O)(=O)n2c(N)nc3ccccc32)cc1,≥ 80%,54.9 µM,–
–,Cc1ccc(S(=O)(=O)n2c(C(=O)O)cc3ccccc32)cc1,≥ 80%,–,–
39%,CCOC(=O)c1cc2ccccc2n1Cc1ccc(C2CC2)cc1,≥ 80%,–,–
–,O=C(O)c1cc2ccccc2n1Cc1ccc(Cl)cc1,≥ 80%,–,–
–,CC(C)(C)OC(=O)Nc1cc2ccccc2n1Cc1ccc(Cl)cc1,≥ 80%,–,–
–,CCOC(=O)c1cc2ccccc2n1C(=O)c1ccc(C)cc1,≥ 80%,24.6 µM,16 µM

Structure (SMILES),Activity [1],viability at 24 h [2],IC50 [3],IC50 [4]
CCOC(=O)c1cc2ccccc2n1S(=O)(=O)c1ccc(F)cc1,24%,≥ 80%,12.6 µM,9.22 µM
Cc1ccc(CN2C(=N)Cc3ccccc32)cc1,inactive,≥ 80%,–,–
CCOC(=O)c1cc2ccccc2n1S(=O)(=O)c1ccc(C)cc1,24%,≥ 80%,6.45 µM,5.74 µM
N=C1Cc2ccccc2N1Cc1ccc(C2CC2)cc1,inactive,≥ 80%,–,–
N=C1Cc2ccccc2N1Cc1ccc(Br)cc1,inactive,≥ 80%,–,–
N=C1Cc2ccccc2N1Cc1ccc(Cl)cc1,44%,≥ 80%,> 25 µM,15.7 µM
CC(C)c1ccc(CN2C(=N)Cc3ccccc32)cc1,inactive,≥ 80%,–,–
CCOC(=O)c1cc2ccccc2n1S(=O)(=O)c1ccc(Cl)cc1,30%,≥ 80%,23.4 µM,19.8 µM
N=C1Cc2ccccc2N1Cc1ccccc1,72%,≥ 80%,–,–
CCOC(=O)c1cc2ccccc2n1S(=O)(=O)c1ccc([N+](=O)[O-])cc1,27%,≥ 80%,16.9 µM,15 µM
CCOC(=O)c1cc2ccccc2n1Cc1ccc(C)cc1,24%,≥ 80%,9.04 µM,7.78 µM
